Test results reported in patent US4192871A, “Chemical compounds” (Glaxo Laboratories Limited, priority 1976, dated 1980).
Counter-ions that a name gives are not always drawn.

Legend:
[1] = dissolution of the 11β-aminoester salts in aqueous acid (Table 5 and Examples 101, 225-229); assay type: physicochemical
Experimental: (§1) A solution of the above free base (492 mg; 1 mmole) in ethanol (10 ml) was treated with a solution (10 ml) of M/10 citric acid in ethanol water (9:1) and the mixture evaporated in vacuo at low temperature to afford a froth.
(§2) Table 5 summarises the properties and preparation of salts of the invention by one of the following methods:
(§3) A. The 11β-aminoester (1 part) was added to a solution of the acid (1 molar part) in water and the mixture stirred or shaken until a clear solution was obtained. The solution was made up with water to the weight indicated, filtered through a membrane and the pH determined.
(§4) B. The 11β-aminoester (1 part) was added to a solution of the acid (1 molar part) in water and the mixture stirred or shaken. As free base remained undissolved, further acid was added and the mixture agitated again. The solution was made up with water to the weight indicated and any material which then remained undissolved was collected in a weighed funnel and the weight of free base dissolved calculated and the pH of the solution measured.
(§5) C. A mixture of the 11β-aminoester (1 part), a 0.1 M solution of the acid (1 molar part) and ethanol was evaporated in vacuo and dried to constant weight. The residue was dissolved in a little water and any material which then remained undissolved collected in a weighed funnel and the weight of free base dissolved calculated. The solution was made up with water to the weight indicated and its pH measured.
(§6) D. The 11β-aminoester (1 part) was added to a solution of the acid (1 molar part) in water and the mixture stirred or shaken. The solution was made up with water to the weight indicated. The material remaining undissolved was collected in a weighed funnel and the weight of free base dissolved calculated and the pH of the solution measured.
(§7) E. As in method C except that further acid was added to the residue after addition of the small amount of water.
The solid citric acid used was as its monohydrate.
(§8) Sodium iodide (0.250 g) and diethylamine (0.5 ml) were added to a solution of 11β-chloroacetoxy-2β-ethoxy-3α-hydroxy-D-homo-5α-pregnan-20-one (0.250 g) in acetone (10 ml) and the mixture was left at room temperature for 3 days during which time a white solid precipated. Water was added and the yellow solution was concentrated in vacuo whereupon crystallisation occurred. The needles were filtered off and washed well with acetone/water yielding the title compound (0.201 g), m.p. 160°-73°, [α]D +60.8°. The above base (0.101 g) was stirred with citric acid monohydrate (0.042 g) in water (9.5 ml) for 21 hours. The solution was made up to 10.1 g by weight. The solid remaining out of solution was filtered off, dried and weighed. The solution was passed through a millipore filter giving an aqueous solution of the title compound, concentration 9.75 mg/ml, pH 3.66.
The above base (0.096 g) was stirred in a solution of citric acid monohydrate (0.038 g) in water (8.5 ml) for 20 hours. A large proportion of the steroid remained out of solution. More citric acid (0.038 g) was added and the mixture stirred for a further 6 hours. The solution was made up to 9.6 g by weight and the solid remaining out of solution was filtered off, dried and weighed. The solution was passed through a millipore filter giving an aqueous solution of the title compound, concentration 9.5 mg/ml, pH 2.85.
To a solution of citric acid monohydrate (52.5 mg) in water (2 ml) was added the above free base (115 mg). More water (8 ml) was added and the mixture was stirred for 72 hrs. A small amount of steroid remained out of solution and more citric acid (52.5 mg) was added. Within 5 mins. a clear solution was obtained which was made up to 11.5 g with water and filtered through a millipore filter yielding an aqueous solution of the title citrate, concentration 10 mg/ml, pH 3.0.
The above free base (112 mg) was added to a solution of citric acid monohydrate (52.5 mg) in water (2 ml). More water (8 ml) was added and the mixture was swirled from time to time. […]

pH of the salt solutions = assay type: physicochemical
Experimental: as §1, §2, §3, §4, §5, §6, §7
11β-N,N-Diethylaminoacetoxy-2β-ethoxy-3α-hydroxy-5α-pregnan-20-one (1.45 g) was agitated with citric acid monohydrate (621 mg) in 0.9% w/v sodium chloride solution (steriflex^(R)) (130 ml.) at 20° for 16.5 hours. The resulting solution was stirred at 21° and N/5 sodium hydroxide solution in steriflex^(R) (10.5 ml) was added dropwise during 30 minutes, raising the pH from 3.63 to 4.52. The solution was diluted to 162.5 g so that the concentration of steroid was 9 mg/ml. The solution of the citrate was filtered through a membrane and finally filtered into 8 sterile ampoules.
11β-(N-Butyl-N-ethylaminoacetoxy)-3α-hydroxy-5α-pregnan-20-one (1.80 g) was agitated with citric acid monohydrate (793 mg) in 0.9% w/v sodium chloride solution (steriflex^(R)) (160 ml) at 20° for 19.5 hours. The resulting solution was slightly cloudy. This solution was stirred at 21° and N/5 sodium hydroxide solution in steriflex^(R) (5.8 ml) was added dropwise during 15 minutes, raising the pH from 3.62 to 4.00. The solution was diluted to 201.2 g so that the concentration of steroid was 9 mg/ml. The cloudiness was removed by filtration through a membrane and the clear solution of the citrate was filtered into 8 sterile ampoules.
as §8, with “3.66. […]” for “3.66.”

[2] = method B: further acid added, undissolved material weighed, WT. of solution 10 g, except Ex. 130 and 141: 9.2, 142: 9.23, 143, 144, 189 and 199: 9.8, 149: 10.6, 153: 7.9, 162 and 188: 9.5, 163: 68, 166: 10.4, 168: 10.7, 169: 10.9, 183: 8.05, 184 and 201: 9.83, 185: 7.1, 186: 9.3, 192: 10.07, 193: 6.4, 195: 6.8, 196: 7, 197: 7.2, 200: 10.1, 206: 15 g
[3] = aqueous solution of the salt, Table 5
[4] = method A: clear solution, 1 molar part acid, made up with water to WT. of solution 10 g, except Ex. 121 and 150: 12, 123: 12.3, 124: 7.5, 129: 10.3, 135 and 139: 8.95, 164: 10.35, 170: 10.4, 181: 10.04, 187: 9.5, 210: 10.2, 221: 15 g
[5] = method C: ethanol evaporated, residue in water, undissolved material weighed, WT. of solution Ex. 118: 10, 120: 10.4, 148: 9.54, 152: 5.6, 154: 9.1, 155: 8.77, 156: 9.06, 157: 9.5, 158: 9.38, 159: 9.17, 179: 9.65, 180: 11.7, 182: 4.9, 202: 12.05, 213: 12, 214: 11.5, 215: 11.1, 216: 11.6, 217: 12.1 g
[6] = method D: 1 molar part acid, undissolved material weighed, WT. of solution 10 g, except Ex. 136: 8.95, 140: 9.52, 165 and 167: 10.1, 190 and 198: 9.8, 191: 8.9, 194: 6.6, 204: 10.09, 219: 10.6 g

Row | SMILES | Dissolved aminoester [1, 2] | pH (pH of the salt solutions; [3]) | other results
1 | CCN(CC)CC(=O)O[C@H]1C[C@]2(C)[C@@H](C(C)=O)CC[C@H]2[C@@H]2CC[C@H]3C[C@H](O)[C@@H](Br)C[C@]3(C)[C@H]21 [Example 208] | 65 mg | 2.6 | –
2 | CCCCCCN(C)CC(=O)O[C@H]1C[C@]2(C)[C@@H](C(C)=O)CC[C@H]2[C@@H]2CC[C@H]3C[C@H](O)CC[C@]3(C)[C@H]21 [Example 189] | 93 mg | 2.98 | –
3 | CC(=O)[C@H]1CC[C@H]2[C@@H]3CC[C@H]4C[C@](C)(O)CC[C@]4(C)[C@H]3[C@@H](OC(=O)CN3CCCCC3)C[C@]12C [Example 133] | – | 3.7 | Dissolved aminoester [1, 4]: 100 mg
4 | CC(=O)[C@H]1CC[C@H]2[C@@H]3CC[C@H]4C[C@H](O)CC[C@]4(C)[C@H]3[C@@H](OC(=O)CNC3CCCC3)C[C@]12C [Example 137] | – | 3.62 | Dissolved aminoester [1, 4]: 100 mg
5 | CCC(C)N(C)CC(=O)O[C@H]1C[C@]2(C)[C@@H](C(C)=O)CC[C@H]2[C@@H]2CC[C@H]3C[C@H](O)CC[C@]3(C)[C@H]21 (stereo partly drawn) [Example 184] | 94.5 mg | 3.0 | –
6 | CC(=O)[C@H]1CC[C@H]2[C@@H]3CC[C@H]4C[C@H](O)CC[C@]4(C)[C@H]3[C@@H](OC(=O)CN3CCCCC3C)C[C@]12C (stereo partly drawn) [Example 148] | – | 3.55 | Dissolved aminoester [1, 5]: 95.4 mg
7 | CC(=O)[C@H]1CC[C@H]2[C@@H]3CC[C@H]4C[C@H](O)CC[C@]4(C)[C@H]3[C@@H](OC(=O)CCCN3CCC(C)CC3)C[C@]12C [Example 181] | – | 3.72 | Dissolved aminoester [1, 4]: 101 mg
8 | CC(=O)[C@H]1CC[C@H]2[C@@H]3CC[C@H]4C[C@H](O)CC[C@]4(C)[C@H]3[C@@H](OC(=O)CNC(C)CCC(C)C)C[C@]12C (stereo partly drawn) [Example 143] | 86 mg | 2.85 | –
9 | CCC(C)CN(C)CC(=O)O[C@H]1C[C@]2(C)[C@@H](C(C)=O)CC[C@H]2[C@@H]2CC[C@H]3C[C@H](O)CC[C@]3(C)[C@H]21 (stereo partly drawn) [Example 186] | 75 mg | 2.85 | –
10 | CC(=O)[C@H]1CC[C@H]2[C@@H]3CC[C@H]4C[C@H](O)CC[C@]4(C)[C@H]3[C@@H](OC(=O)CN(C)CCc3ccccc3)C[C@]12C [Example 126] | 56 mg | 2.65 | –
11 | CCCN(CCC)CC(=O)O[C@H]1C[C@]2(C)[C@@H](C(C)=O)CC[C@H]2[C@@H]2CC[C@H]3C[C@H](O)CC[C@]3(C)[C@H]21 [Example 216] | – | 3.58 | Dissolved aminoester [1, 5]: 116 mg
12 | CCCCOC1CC2(C)C(CCC3C4CCC(C(C)=O)C4(C)CC(OC(=O)CN4CCC(C)CC4)C32)CC1O (stereo not drawn) [Example 169] | 80.5 mg | 2.8 | –
13 | CC(=O)[C@H]1CC[C@H]2[C@@H]3CC[C@H]4C[C@H](O)CC[C@]4(C)[C@H]3[C@@H](OC(=O)CN(C)C(C)CCC(C)C)C[C@]12C (stereo partly drawn) [Example 192] | 100.7 mg | 3.00 | –
14 | CCC(C)CN(CC)CC(=O)O[C@H]1C[C@]2(C)[C@@H](C(C)=O)CC[C@H]2[C@@H]2CC[C@H]3C[C@H](O)CC[C@]3(C)[C@H]21 (stereo partly drawn) [Example 196] | 39 mg | 2.53 | –
15 | CCCN(CCC)CC(=O)O[C@H]1C[C@]2(C)[C@@H](C(C)=O)CC[C@H]2[C@@H]2CC[C@H]3C[C@H](O)CC[C@]3(C)[C@H]21 [Example 219] | – | 3.77 | Dissolved aminoester [1, 6]: 106 mg
16 | CC(=O)[C@H]1CC[C@H]2[C@@H]3CC[C@H]4C[C@H](O)CC[C@]4(C)[C@H]3[C@@H](OC(=O)CN3CCCC(C)C3)C[C@]12C (stereo partly drawn) [Example 157] | – | 3.59 | Dissolved aminoester [1, 5]: 95 mg
17 | CCN(CC(=O)O[C@H]1C[C@]2(C)[C@@H](C(C)=O)CC[C@H]2[C@@H]2CC[C@H]3C[C@H](O)CC[C@]3(C)[C@H]21)C(C)C [Example 194] | – | 3.56 | Dissolved aminoester [1, 6]: 57 mg
18 | CO[C@H]1C[C@@]2(C)[C@@H](CC[C@@H]3[C@@H]2[C@@H](OC(=O)CN2CCCCC2)C[C@]2(C)[C@@H](C(C)=O)CC[C@@H]32)C[C@@H]1O [Example 123] | – | 3.6 | Dissolved aminoester [1, 4]: 122 mg
19 | CCCCN(C)CC(=O)O[C@H]1C[C@]2(C)[C@@H](C(C)=O)CC[C@H]2[C@@H]2CC[C@H]3C[C@H](O)CC[C@@H]3[C@H]21 [Example 228 citrate salt] | – | – | concentration of aqueous solution of the citrate ([1]; citric acid monohydrate in water, filtered solution): 10000 µg/mL; pH (pH of the salt solutions; aqueous solution of the citrate, filtered, 9.5-10 mg/ml): 3.77
20 | CCCN(CCC)CC(=O)O[C@H]1C[C@]2(C)[C@@H](C(=O)CO)CC[C@H]2[C@@H]2CC[C@H]3C[C@H](O)CC[C@]3(C)[C@H]21 [Example 210] | – | 3.7 | Dissolved aminoester [1, 4]: 100 mg
21 | CCN(CC)CC(=O)O[C@H]1C[C@]2(C)[C@@H](C(C)=O)CC[C@H]2[C@@H]2CC[C@H]3C[C@H](O)[C@@H](SC#N)C[C@]3(C)[C@H]21 [Example 204] | – | 3.5 | Dissolved aminoester [1, 6]: 88.7 mg
